Measured values published in PubChem BioAssay AID330 (DTP/NCI, 2004).
Values joined by “and” are separate entries in the source; they are usually repeats but may differ in a detail not shown here. Equal values may be shown once. Toxic doses and inconclusive results are not listed. Rule for the calls: active = survival T/C of 150% or more; inactive = T/C below 125% in these data.

Test system: P388 leukemia ip, CD2F1 mice, survival T/C
Assay: NCI In Vivo Anticancer Drug Screen. Data for tumor model P388 Leukemia (intraperitoneal) in CD2F1 (CDF1) mice
Conditions: endpoint: median survival time, higher = longer survival
Procedure: The antitumor activity of compounds was measured in mice bearing transplantable tumors. Survival or tumor size were measured and the results are expressed as the measurement made in the treated group (T) divided by the measurement made in the vehicle treated control group (C). The tumor model used in this assay is P388 Leukemia (intraperitoneal) in CD2F1 (CDF1) mice

[1] = dose: 100.0 mg/kg/injection, schedule: Q01DX001 (ip), vehicle: Klucel (hydroxypropylcellulose) (HPC)
[2] = dose: 200.0 mg/kg/injection, schedule: Q01DX001 (ip), vehicle: Klucel (hydroxypropylcellulose) (HPC)
[3] = dose: 400.0 mg/kg/injection, schedule: Q01DX001 (ip), vehicle: Klucel (hydroxypropylcellulose) (HPC)
[4] = dose: 50.0 mg/kg/injection, schedule: Q01DX005 (ip), vehicle: saline with Tween-80
[5] = dose: 100.0 mg/kg/injection, schedule: Q01DX005 (ip), vehicle: saline with Tween-80
[6] = dose: 200.0 mg/kg/injection, schedule: Q01DX005 (ip), vehicle: saline with Tween-80
[7] = dose: 12.5 mg/kg/injection, schedule: Q01DX009 (ip), vehicle: saline with Tween-80
[8] = dose: 25.0 mg/kg/injection, schedule: Q01DX009 (ip), vehicle: saline with Tween-80
[9] = dose: 50.0 mg/kg/injection, schedule: Q01DX009 (ip), vehicle: saline with Tween-80
[10] = dose: 50.0 mg/kg/injection, schedule: Q01DX009 (ip), vehicle: saline
[11] = dose: 100.0 mg/kg/injection, schedule: Q01DX009 (ip), vehicle: saline
[12] = dose: 6.25 mg/kg/injection, schedule: Q01DX009 (ip), vehicle: saline with Tween-80
[13] = dose: 50.0 mg/kg/injection, schedule: Q01DX005 (ip), vehicle: saline
[14] = dose: 100.0 mg/kg/injection, schedule: Q01DX005 (ip), vehicle: saline
[15] = dose: 200.0 mg/kg/injection, schedule: Q01DX005 (ip), vehicle: saline
[16] = dose: 50.0 mg/kg/injection, schedule: Q01DX009 (ip), vehicle: Klucel (hydroxypropylcellulose) (HPC)
[17] = dose: 100.0 mg/kg/injection, schedule: Q01DX009 (ip), vehicle: Klucel (hydroxypropylcellulose) (HPC)
[18] = dose: 200.0 mg/kg/injection, schedule: Q01DX009 (ip), vehicle: Klucel (hydroxypropylcellulose) (HPC)

Measured: T/C

N#CN=C(N)N=P(c1ccccc1)(c1ccccc1)c1ccccc1
inactive: [1] 97 % of control | [2] 100 % of control | [3] 91 % of control

COc1ccccc1N/N=c1\c2nc3ccccc3nc1n(-c1ccccc1C)c(=S)n2-c1ccccn1
inactive: dose: 60.0 mg/kg/injection, schedule: Q01DX005 (ip), vehicle: saline with Tween-80 102 % of control | dose: 120.0 mg/kg/injection, schedule: Q01DX005 (ip), vehicle: saline with Tween-80 96 % of control

CC(=O)c1cc2ccccc2c2ccccc12
inactive: [4] 98 % of control | [5] 98 % of control | [6] 96 % of control

c1nc(SSc2ncnc3nc[nH]c23)c2[nH]cnc2n1
inactive: [7] 113 % of control | [8] 118 % of control | [9] 100 % of control

CN(C)CCC(CCc1ccccc1)OC(=O)c1ccccc1 (stereo unspecified)
inactive: dose: 25.0 mg/kg/injection, schedule: Q01DX009 (ip), vehicle: saline 102 % of control | [10] 101 % of control | [11] 102 % of control

NS(=O)(=O)c1ncnc2nc[nH]c12
inactive: dose: 10.0 mg/kg/injection, schedule: Q01DX009 (ip), vehicle: saline with Tween-80 112 % of control | dose: 15.0 mg/kg/injection, schedule: Q01DX009 (ip), vehicle: saline with Tween-80 112 % of control | dose: 30.0 mg/kg/injection, schedule: Q01DX009 (ip), vehicle: saline with Tween-80 90 % of control | dose: 60.0 mg/kg/injection, schedule: Q01DX009 (ip), vehicle: saline with Tween-80 104 % of control

COc1ccc(/C=C2\C=CC(=O)O2)cc1
inactive: dose: 100.0 mg/kg/injection, schedule: Q01DX002 (ip), vehicle: Klucel (hydroxypropylcellulose) (HPC) 104 % of control | dose: 200.0 mg/kg/injection, schedule: Q01DX002 (ip), vehicle: Klucel (hydroxypropylcellulose) (HPC) 103 % of control | dose: 400.0 mg/kg/injection, schedule: Q01DX002 (ip), vehicle: Klucel (hydroxypropylcellulose) (HPC) 105 % of control

CC(C)CCc1cc(O)c(CCC(C)C)cc1O
inactive: [12] 88 % of control | [8] 109 % of control | [9] 108 % of control | dose: 100.0 mg/kg/injection, schedule: Q01DX009 (ip), vehicle: saline with Tween-80 114 % of control

COC(=O)C(NC(=O)C(CO)N1C(=O)c2ccccc2C1=O)c1ccccc1 (stereo unspecified)
inactive: [4] 99 % of control | [5] 98 % of control

[C-]#[N+]C([N+]#[C-])=C(C)OCC
inactive: [12] 98 % of control | [7] 89 % of control | [8] 105 % of control | [11] 101 % of control

Nc1cn(C2OC(CO)C(O)C2O)c(=O)[nH]c1=O (stereo unspecified)
inactive: [8] 95 % of control | [9] 92 % of control

C[n+]1cccc(C(=O)O)c1
inactive: dose: 25.0 mg/kg/injection, schedule: Q01DX005 (ip), vehicle: saline 100 % of control | [13] 101 % of control | [14] 99 % of control | [15] 91 % of control

COc1cc2ccc(/C=C\[N+](=O)[O-])cc2cc1OC
inactive: dose: 3.13 mg/kg/injection, schedule: Q01DX009 (ip), vehicle: other 105 % of control | dose: 6.25 mg/kg/injection, schedule: Q01DX009 (ip), vehicle: other 108 % of control | dose: 12.5 mg/kg/injection, schedule: Q01DX009 (ip), vehicle: other 107 % of control | dose: 25.0 mg/kg/injection, schedule: Q01DX009 (ip), vehicle: other 108 % of control

COc1oc(C2C/C(=C/C(C)=C/C(C)=C/C(C)=C/c3ccc([N+](=O)[O-])cc3)CO2)c(C)c(=O)c1C (stereo unspecified)
inactive: dose: 0.25 mg/kg/injection, schedule: Q01DX005 (ip), vehicle: saline 116 % of control | dose: 0.5 mg/kg/injection, schedule: Q01DX005 (ip), vehicle: saline 107 % of control | dose: 1.0 mg/kg/injection, schedule: Q01DX005 (ip), vehicle: saline 113 % of control | dose: 2.0 mg/kg/injection, schedule: Q01DX005 (ip), vehicle: saline 121 % of control

C=CCOc1cc2c(cc1C(C)c1cc(OC)c(OC)c(OC)c1)OCO2 (stereo unspecified)
inactive: [4] 101 % of control | [5] 99 % of control | [6] 108 % of control

CCCCOC1OCN(C2CCCCC2)CC1(C)C (stereo unspecified)
inactive: [9] 104 % of control and 121 % of control | dose: 400.0 mg/kg/injection, schedule: Q01DX009 (ip), vehicle: saline with Tween-80 120 % of control

COc1cc(Cc2nnc(N)[nH]c2=O)cc(OC)c1OC
inactive: [12] 97 % of control | [7] 91 % of control | [1] 116 % of control | [2] 89 % of control | [3] 100 % of control

Cn1ncc2c(Cl)ncnc21
inactive: [16] 91 % of control | [17] 93 % of control | [18] 107 % of control

O=C(Nc1ccccc1)Sc1nc2ccccc2s1
inactive: [10] 102 % of control | [11] 104 % of control | dose: 200.0 mg/kg/injection, schedule: Q01DX009 (ip), vehicle: saline 104 % of control

O=C1C2CCCN2C(=O)N1c1ccc([N+](=O)[O-])cc1 (stereo unspecified)
inactive: [1] 97 % of control | [2] 97 % of control | [3] 99 % of control

CN(C(=O)C(Cl)Cl)c1ccc(-c2csc(-c3ccccc3)n2)cc1
inactive: dose: 100.0 mg/kg/injection, schedule: Q04DX003 (ip), vehicle: Klucel (hydroxypropylcellulose) (HPC) 100 % of control | dose: 200.0 mg/kg/injection, schedule: Q04DX003 (ip), vehicle: Klucel (hydroxypropylcellulose) (HPC) 97 % of control | dose: 400.0 mg/kg/injection, schedule: Q04DX003 (ip), vehicle: Klucel (hydroxypropylcellulose) (HPC) 91 % of control

CCCCCCOC(CN(C)C)C(Cl)(Cl)Cl (stereo unspecified)
inactive: dose: 50.0 mg/kg/injection, schedule: Q01DX009 (ip), vehicle: suspension in saline 97 % of control | dose: 100.0 mg/kg/injection, schedule: Q01DX009 (ip), vehicle: suspension in saline 96 % of control | dose: 400.0 mg/kg/injection, schedule: Q01DX009 (ip), vehicle: suspension in saline 124 % of control

CN1CC2(C)CCCC(C)(C1)C2O (stereo unspecified)
inactive: [4] 106 % of control | [5] 98 % of control

CCN(CC)c1ccc(/C=N\NC(=O)C(=O)N/N=C\c2ccc(N(CC)CC)cc2)cc1
inactive: [4] 87 % of control | [5] 87 % of control | [6] 89 % of control

COc1ccc2[nH]cc(C3CCCN4CCCCC34)c2c1 (stereo unspecified)
inactive: [4] 101 % of control | [5] 99 % of control

OC1C2CC3CC(C2)CC1(C#CC1(O)C2CC4CC(C2)CC1C4)C3 (stereo unspecified)
inactive: dose: 25.0 mg/kg/injection, schedule: Q01DX009 (ip), vehicle: Klucel (hydroxypropylcellulose) (HPC) 100 % of control | [16] 100 % of control | [17] 93 % of control

Nc1nnnn1/N=C/c1ccccc1
inactive: dose: 50.0 mg/kg/injection, schedule: Q04DX002 (ip), vehicle: Klucel (hydroxypropylcellulose) (HPC) 87 % of control | dose: 100.0 mg/kg/injection, schedule: Q04DX002 (ip), vehicle: Klucel (hydroxypropylcellulose) (HPC) 101 % of control | dose: 200.0 mg/kg/injection, schedule: Q04DX002 (ip), vehicle: Klucel (hydroxypropylcellulose) (HPC) 100 % of control

C[n+]1c(C[n+]2ccccc2)ccc2ccccc21
inactive: [13] 105 % of control | [14] 106 % of control

O=C(CCCCC(=O)N1CCOCC1)N1CCOCC1
inactive: [13] 100 % of control | [14] 101 % of control | [15] 101 % of control

C/C=C/N1C(=O)C2C=CC1C(C(C)=O)C2 (stereo unspecified)
inactive: dose: 100.0 mg/kg/injection, schedule: Q04DX002 (ip), vehicle: saline 94 % of control | dose: 200.0 mg/kg/injection, schedule: Q04DX002 (ip), vehicle: saline 98 % of control | dose: 400.0 mg/kg/injection, schedule: Q04DX002 (ip), vehicle: saline 96 % of control

COC1CC23OC2(C1)C1C=CC3N(C(=O)OCC(Cl)(Cl)Cl)N1C(=O)OCC(Cl)(Cl)Cl (stereo unspecified)
inactive: dose: 50.0 mg/kg/injection, schedule: Q01DX005 (ip), vehicle: Klucel (hydroxypropylcellulose) (HPC) 102 % of control | dose: 100.0 mg/kg/injection, schedule: Q01DX005 (ip), vehicle: Klucel (hydroxypropylcellulose) (HPC) 105 % of control | dose: 200.0 mg/kg/injection, schedule: Q01DX005 (ip), vehicle: Klucel (hydroxypropylcellulose) (HPC) 102 % of control

Nc1ccccc1.O=C([CH-]C(=O)C(F)(F)F)c1ccccc1.O=C([CH-]C(=O)C(F)(F)F)c1ccccc1.O=C([CH-]C(=O)C(F)(F)F)c1ccccc1.O=C([CH-]C(=O)C(F)(F)F)c1ccccc1.[Eu+3]
inactive: [17] 100 % of control | [18] 103 % of control
